According to PMC5602553 (Biochemistry, 2017):

Biological target: T1, KpCld (Klebsiella pneumoniae, UniProt A6TJ49)
T1 sequence (A6TJ49 1-187): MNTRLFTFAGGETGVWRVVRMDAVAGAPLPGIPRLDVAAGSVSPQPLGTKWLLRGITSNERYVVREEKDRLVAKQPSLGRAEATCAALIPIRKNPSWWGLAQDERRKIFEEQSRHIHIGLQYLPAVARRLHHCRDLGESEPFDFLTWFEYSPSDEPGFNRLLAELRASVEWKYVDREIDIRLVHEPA
Details: 100 mM phosphate pH 6.0; ferric enzyme; single binding site

`Br` [Br^−] gave a Kd of 12.2 mM.
